BigSolDB 2.1

CC1(C)O[C@H]2CC(=O)OC[C@]23[C@H]2CC[C@@]4(C)[C@H](c5ccoc5)OC(=O)[C@H]5O[C@]54[C@]2(C)C(=O)C[C@@H]13
solubility (mole fraction)
Conditions	283.2 K	288.2 K	293.2 K	298.2 K	303.2 K	308.2 K	313.2 K	318.2 K	323.2 K
in THF	0.00242	0.00257	0.0028	0.00309	0.00327	0.0035	0.00408	0.00458	0.00486
in acetonitrile	0.00272	0.00314	0.00349	0.00385	0.00454	0.00523	0.00628	0.00739	0.00857
in chloroform	0.00425	0.00433	0.00447	0.00458	0.00479	0.00512	0.00531	0.0057	0.00599
in ethanol	2.65e-05	2.93e-05	3.05e-05	3.53e-05	4.27e-05	5.48e-05	6.71e-05	8.49e-05	0.000101
in ethyl acetate	0.000746	0.000761	0.000801	0.00085	0.00094	0.000979	0.00101	0.00119	0.00128
in isopropanol	1.08e-05	1.25e-05	1.56e-05	1.79e-05	1.87e-05	2.25e-05	3.03e-05	3.47e-05	4.52e-05
in n-butanol	1.53e-05	1.94e-05	2.01e-05	2.64e-05	2.91e-05	3.54e-05	4.23e-05	5.62e-05	7.25e-05
in n-butyl acetate	0.000323	0.000349	0.000375	0.000413	0.000484	0.00053	0.000616	0.000646	0.00068
